biological target: T1, androgen receptor (Homo sapiens, UniProt P10275, T878A); assay: cell-based; conditions: LNCaP cells, 10 μM test substance, 48 h; AR/actin as percentage of DMSO control
T1 construct: 2*10^6 LNCaP cells in 6 ml of RPMI 1640 without phenol red are grown; endogenous in cells; host or cells: LNCaP (human prostate cell line)
T1 sequence (P10275 1-920 T878A): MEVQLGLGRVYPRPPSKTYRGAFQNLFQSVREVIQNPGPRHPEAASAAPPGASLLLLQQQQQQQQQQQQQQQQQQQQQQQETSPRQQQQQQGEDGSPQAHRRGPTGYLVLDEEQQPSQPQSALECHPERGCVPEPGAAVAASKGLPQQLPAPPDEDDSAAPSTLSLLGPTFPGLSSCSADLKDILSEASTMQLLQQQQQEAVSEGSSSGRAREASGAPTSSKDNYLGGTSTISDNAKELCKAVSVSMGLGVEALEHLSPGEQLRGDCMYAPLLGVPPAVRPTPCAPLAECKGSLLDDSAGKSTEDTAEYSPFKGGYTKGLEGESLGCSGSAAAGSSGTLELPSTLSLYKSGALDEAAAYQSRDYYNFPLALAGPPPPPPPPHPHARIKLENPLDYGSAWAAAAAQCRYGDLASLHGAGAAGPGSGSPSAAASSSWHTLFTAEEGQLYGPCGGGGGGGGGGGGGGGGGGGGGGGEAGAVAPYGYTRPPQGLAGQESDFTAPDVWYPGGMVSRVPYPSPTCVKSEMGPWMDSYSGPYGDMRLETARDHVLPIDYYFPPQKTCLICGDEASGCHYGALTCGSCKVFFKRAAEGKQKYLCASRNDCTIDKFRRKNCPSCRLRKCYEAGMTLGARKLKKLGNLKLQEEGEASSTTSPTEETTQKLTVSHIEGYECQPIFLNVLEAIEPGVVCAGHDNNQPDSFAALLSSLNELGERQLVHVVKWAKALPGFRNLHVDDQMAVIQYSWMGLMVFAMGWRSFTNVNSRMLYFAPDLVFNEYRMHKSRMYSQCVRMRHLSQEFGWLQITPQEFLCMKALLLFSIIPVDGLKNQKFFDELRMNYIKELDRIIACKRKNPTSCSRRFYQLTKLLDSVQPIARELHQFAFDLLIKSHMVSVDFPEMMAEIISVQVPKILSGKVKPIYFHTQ

SMILES | AR Content [%] At 10 μM [%]
CC1=C(CCCCCCN2CCN(C(=O)Nc3c(Cl)cccc3Cl)CC2)C(=O)N(c2ccc(C#N)c(C(F)(F)F)c2)C1=O [Example 351] | 61

same assay, conditions: LNCaP cells, R-1881 at 10 nM; percentage of DMSO control

SMILES | AR Content [%]
C[C@]1(O)CC[C@H]2[C@@H]3CCC4=CC(=O)CCC4=C3C=C[C@@]21C [Example R-1881, 17β-hydroxy-17α-methylestra-4,9,11-trien-3-one, reference compound] | 250

same assay, conditions: LNCaP cells, R-1881 at 10 nM; percentage of DMSO control; listed as R1881

SMILES | AR Content [%]
C[C@]1(O)CC[C@H]2[C@@H]3CCC4=CC(=O)CCC4=C3C=C[C@@]21C [Example R-1881, 17β-hydroxy-17α-methylestra-4,9,11-trien-3-one, reference compound] | stabilizes the AR protein

same assay, conditions: LNCaP, 48 h, read-out: AR Content [%] At 1 μM

SMILES | remaining activity at 1 µM [%]
CC(C)C(=O)N1CCN(CCCCCCN2C(=S)N(c3ccc(C#N)c(C(F)(F)F)c3)C(=O)C2(C)C)CC1 [Example 653, 4-[4,4-Dimethyl-3-[6-[4-(2-methyl-1-oxopropyl)piperazin-1-yl]hexyl]-5-oxo-2-thioxoimidazolidin-1-yl]-2-(trifluoromethyl)benzonitrile] | 71
CC(CN1C(=S)N(c2ccc(C#N)c(C(F)(F)F)c2)C(=O)C1(C)C)N1CCN(C(=O)c2cccs2)CC1 (stereo not shown) [Example 524, 4-[4,4-Dimethyl-5-oxo-3-[2-[4-[(thien-2-yl)carbonyl]-piperazin-1-yl]propyl]-2-thioxoimidazolidin-1-yl]-2-(trifluoromethyl)benzonitrile] | 61
CC1(C)C(=O)N(c2ccc(C#N)c(C(F)(F)F)c2)C(=S)N1CCCCCN1CCN(S(=O)(=O)c2ccc(C#N)cc2)CC1 [Example 632, 4-[3-[5-[4-[(4-Cyanophenyl)sulfonyl]piperazin-1-yl]pentyl]-4,4-dimethyl-5-oxo-2-thioxoimidazolidin-1-yl]-2-(trifluoromethyl)benzonitrile] | 75
CC1=C(CCCCCCN2CCN(C(=O)Nc3cc(Cl)nc(Cl)c3)CC2)C(=O)N(c2ccc(C#N)c(C(F)(F)F)c2)C1=O [Example 365, 4-[6-[1-[4-Cyano-3-(trifluoromethyl)phenyl]-2,5-dihydro-4-methyl-2,5-dioxo-1H-pyrrol-3-yl]hexyl]-N-(2,6-dichloropyridin-4-yl)piperazine-1-carboxamide] | 82

same assay, conditions: LNCaP, 48 h, read-out: AR Content [%] At 10 μM

SMILES | remaining activity at 10 µM [%]
CC1=C(CCCCN2CCN(S(=O)(=O)c3ccc(C#N)cc3)CC2)C(=O)N(c2ccc(C#N)c(C(F)(F)F)c2)C1=O [Example 121, 4-[3-[4-[4-[(4-Cyanophenyl)sulfonyl]piperazin-1-yl]butyl]-2,5-dihydro-4-methyl-2,5-dioxo-1H-pyrrol-1-yl]-2-(trifluoromethyl)benzonitrile] | 53
CC1=C(CCCCN2CCN(C(=O)C3CCC3)CC2)C(=O)N(c2ccc(C#N)c(C(F)(F)F)c2)C1=O [Example 93, 4-[3-[4-[4-(Cyclobutylcarbonyl)piperazin-1-yl]butyl]-2,5-dihydro-4-methyl-2,5-dioxo-1H-pyrrol-1-yl]-2-(trifluoromethyl)benzonitrile] | 53
CC1=C(CCCCCN2CCN(S(=O)(=O)c3cccc4nsnc34)CC2)C(=O)N(c2ccc(C#N)c(C(F)(F)F)c2)C1=O [Example 207, 4-[3-[5-[4-[(2,1,3-Benzothiadiazol-4-yl)sulfonyl]piperazin-1-yl]pentyl]-2,5-dihydro-4-methyl-2,5-dioxo-1H-pyrrol-1-yl]-2-(trifluoromethyl)benzonitrile] | 42
CC1=C(CCCCCCN2CCN(C(=O)Nc3ccc(F)cc3)CC2)C(=O)N(c2ccc(C#N)c(C(F)(F)F)c2)C1=O [Example 330, 4-[6-[1-[4-Cyano-3-(trifluoromethyl)phenyl]-2,5-dihydro-4-methyl-2,5-dioxo-1H-pyrrol-3-yl]hexyl]-N-(4-fluorophenyl)-piperazine-1-carboxamide] | 46
CC1=C(CCCCCCN2CCN(C(=O)COc3ccc(Cl)cc3)CC2)C(=O)N(c2ccc(C#N)c(C(F)(F)F)c2)C1=O [Example 264, 4-[3-[6-[4-[(4-Chlorophenoxy)acetyl]piperazin-1-yl]hexyl]-2,5-dihydro-4-methyl-2,5-dioxo-1H-pyrrol-1-yl]-2-(trifluoromethyl)benzonitrile] | 37
CC1=C(CCCCCCN2CCN(S(=O)(=O)c3ccc(C#N)cc3)CC2)C(=O)N(c2ccc(C#N)c(C(F)(F)F)c2)C1=O [Example 300, 4-[3-[6-[4-[(4-Cyanophenyl)sulfonyl]piperazin-1-yl]hexyl]-2,5-dihydro-4-methyl-2,5-dioxo-1H-pyrrol-1-yl]-2-(trifluoromethyl)benzonitrile] | 35
CSc1cccc(NC(=O)N2CCN(CCCCCCC3=C(C)C(=O)N(c4ccc(C#N)c(C(F)(F)F)c4)C3=O)CC2)c1 [Example 340, 4-[6-[1-[4-Cyano-3-(trifluoromethyl)phenyl]-2,5-dihydro-4-methyl-2,5-dioxo-1H-pyrrol-3-yl]hexyl]-N-[3-(methylsulfanyl)phenyl]piperazine-1-carboxamide] | 41
CSc1ccc(NC(=O)N2CCN(CCCCCCC3=C(C)C(=O)N(c4ccc(C#N)c(C(F)(F)F)c4)C3=O)CC2)cc1 [Example 342, 4-[6-[1-[4-Cyano-3-(trifluoromethyl)phenyl]-2,5-dihydro-4-methyl-2,5-dioxo-1H-pyrrol-3-yl]hexyl]-N-[4-(methylsulfanyl)phenyl]piperazine-1-carboxamide] | 67
CC1=C(CCCCCCN2CCN(C(=O)Nc3c(F)cccc3F)CC2)C(=O)N(c2ccc(C#N)c(C(F)(F)F)c2)C1=O [Example 350, 4-[6-[1-[4-Cyano-3-(trifluoromethyl)phenyl]-2,5-dihydro-4-methyl-2,5-dioxo-1H-pyrrol-3-yl]hexyl]-N-(2,6-difluorophenyl)piperazine-1-carboxamide] | 61
CC1=C(CCCCN2CCN(C(=O)c3ccc(N(C)C)cc3)CC2)C(=O)N(c2ccc(C#N)c(C(F)(F)F)c2)C1=O [Example 96, 4-[3-[4-[4-[4-(Dimethylamino)benzoyl]piperazin-1-yl]butyl]-2,5-dihydro-4-methyl-2,5-dioxo-1H-pyrrol-1-yl]-2-(trifluoromethyl)benzonitrile] | 50
CC1=C(CCCCCCN2CCN(C(=O)Nc3cc(Cl)nc(Cl)c3)CC2)C(=O)N(c2ccc(C#N)c(C(F)(F)F)c2)C1=O [Example 365, 4-[6-[1-[4-Cyano-3-(trifluoromethyl)phenyl]-2,5-dihydro-4-methyl-2,5-dioxo-1H-pyrrol-3-yl]hexyl]-N-(2,6-dichloropyridin-4-yl)piperazine-1-carboxamide] | 36
CC1=C(CCCCCCN2CCN(S(C)(=O)=O)CC2)C(=O)N(c2ccc(C#N)c(C(F)(F)F)c2)C1=O [Example 296, 4-[2,5-Dihydro-3-methyl-4-[6-[4-(methylsulfonyl)piperazin-1-yl]hexyl]-2,5-dioxo-1H-pyrrol-1-yl]-2-(trifluoromethyl)benzonitrile] | 48
CC1=C(CCCCCCN2CCN(C(=O)c3ccc(C#N)cc3)CC2)C(=O)N(c2ccc(C#N)c(C(F)(F)F)c2)C1=O [Example 268, 4-[3-[6-[4-(4-Cyanobenzoyl)piperazin-1-yl]hexyl]-2,5-dihydro-4-methyl-2,5-dioxo-1H-pyrrol-1-yl]-2-(trifluoromethyl)benzonitrile] | 73
COc1ccc(C(=O)N2CCN(CCCCCC3=C(C)C(=O)N(c4ccc(C#N)c(C(F)(F)F)c4)C3=O)CC2)cc1OC [Example 158, 4-[3-[5-[4-(3,4-Dimethoxybenzoyl)piperazin-1-yl]pentyl]-2,5-dihydro-4-methyl-2,5-dioxo-1H-pyrrol-1-yl]-2-(trifluoromethyl)benzonitrile] | 22
CC1=C(CCCCCCN2CCN(C(=O)Nc3cccc(F)c3)CC2)C(=O)N(c2ccc(C#N)c(C(F)(F)F)c2)C1=O [Example 326, 4-[6-[1-[4-Cyano-3-(trifluoromethyl)phenyl]-2,5-dihydro-4-methyl-2,5-dioxo-1H-pyrrol-3-yl]hexyl]-N-(3-fluorophenyl)-piperazine-1-carboxamide] | 45
CC1=C(CCCCCCN2CCN(S(=O)(=O)c3ccc(C)cc3)CC2)C(=O)N(c2ccc(C#N)c(C(F)(F)F)c2)C1=O [Example 297, 4-[2,5-Dihydro-3-methyl-4-[6-[4-[(4-methylphenyl)sulfonyl]piperazin-1-yl]hexyl]-2,5-dioxo-1H-pyrrol-1-yl]-2-(trifluoromethyl)benzonitrile] | 59
CC1=C(CCCCCCN2CCN(C(=O)NC(C)C)CC2)C(=O)N(c2ccc(C#N)c(C(F)(F)F)c2)C1=O [Example 319, 4-[6-[1-[4-Cyano-3-(trifluoromethyl)phenyl]-2,5-dihydro-4-methyl-2,5-dioxo-1H-pyrrol-3-yl]hexyl]-N-(1-methylethyl)-piperazine-1-carboxamide] | 74
CC1=C(CCCCCCN2CCN(C(=O)Nc3ccccc3C(F)(F)F)CC2)C(=O)N(c2ccc(C#N)c(C(F)(F)F)c2)C1=O [Example 324, 4-[6-[1-[4-Cyano-3-(trifluoromethyl)phenyl]-2,5-dihydro-4-methyl-2,5-dioxo-1H-pyrrol-3-yl]hexyl]-N-[2-(trifluoromethyl)phenyl]piperazine-1-carboxamide] | 62
